Assay results from ChEMBL document CHEMBL1201862, “PubChem BioAssay data set” (2004).
Active and inactive are the calls of the source.

Assays:
[1] = blockers of HIV-1 envelope-mediated cell-cell fusion – cherry-pick, dose response (AID 652057); assay type: functional, cell-based
[2] = Luminescence Cell-Based Dose Retest to Confirm Inhibitors of Cancer Stem Cells. [Related pubchem assays (depositor defined):AID2717, AID2721]; assay type: functional; conditions: Homo sapiens
[3] = viability loss in CEM21 cells – cell-based, CellTiter-Glo luminescence, cherry-picked, cytotoxicity control for viral fusion inhibitor project, dose response (AID 652042); assay type: functional;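 further: potency for signal decrease meaning cytotoxicity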
[4] = off-target signal loss in HeLa-CEM21 co-culture – HeLa F-luc CTL cells, cherry-picked, counter-screen for HIV-1 Env fusion inhibitor project, dose response (AID 652040); assay type: functional, cell-based;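 further: potency for signal decrease marking cytotoxic or nonspecific inhibition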
[5] = HIV-1 AD8 envelope cell-cell fusion blockers – cherry-pick, dose response (AID 652062); assay type: functional, cell-based;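 further: luciferase signal from cell-cell fusion driven by HIV-1 clade B AD8 Env; potency is for inhibitors of fusion seen as a drop in luminescence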
HEK293 = assay: EBV LMP1 TES2 canonical NF-kB signalling blockers – cell-based, HEK293, luciferase, cherry-pick, dose response (AID 588343); assay type: functional; conditions: Homo sapiens
[6] = tested on: Streptococcus sp. 'group A'; assay: Streptococcus pyogenes SK(-)GAS viability under kanamycin – luminescence, BacTiterGlo, confirmation, counter-screen for streptokinase expression inhibitor project, dose response (AID 1900); assay type: functional, organism-based
[7] = Trypanosoma cruzi growth suppression in host cells – NIH3T3 host cells, beta-gal luminescence, confirmation (AID 2044); assay type: functional, cell-based;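 further: intracellular parasites grown in NIH/3T3 mouse fibroblasts as host cells; luminescent beta-galactosidase reporter signal from transgenic T. cruzi replicating inside host cells; inhibitors lower the luminescence signal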
Streptokinase A = biological target: T1, Streptokinase A (Streptococcus pyogenes serotype M1, UniProt P10520); assay: viability-normalized secreted streptokinase activity reduction – plasminogen activation absorbance, OD405, dose response (AID 1914); assay type: functional, Streptococcus pyogenes M1 GAS;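 further: secreted streptokinase activity via plasminogen activation per viability signal from cell pellet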
T1 sequence (P10520 whole entry): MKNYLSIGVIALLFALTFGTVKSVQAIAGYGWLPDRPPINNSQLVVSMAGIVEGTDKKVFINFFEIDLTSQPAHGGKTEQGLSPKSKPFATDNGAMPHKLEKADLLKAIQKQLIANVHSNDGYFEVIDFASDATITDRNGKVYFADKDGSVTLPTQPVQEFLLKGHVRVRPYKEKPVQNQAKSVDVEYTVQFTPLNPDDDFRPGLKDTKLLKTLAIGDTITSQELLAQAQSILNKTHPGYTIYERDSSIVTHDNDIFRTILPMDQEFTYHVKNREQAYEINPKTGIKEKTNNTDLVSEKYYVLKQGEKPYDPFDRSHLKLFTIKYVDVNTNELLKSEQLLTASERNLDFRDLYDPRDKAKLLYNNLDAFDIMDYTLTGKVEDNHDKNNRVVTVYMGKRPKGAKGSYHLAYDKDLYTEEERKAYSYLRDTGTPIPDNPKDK

[8] = Luminescence Cell-Based Dose Confirmation HTS to Identify Inhibitors of Platelet Dense Granule Release. [Related pubchem assays: 1663 (Primary HTS), 1678 (Summary of Project)]; assay type: functional
[9] = biological target: Luciferin 4-monooxygenase (Photinus pyralis, UniProt P08659); assay: inhibition of purified Photinus pyralis luciferase – biochemical, luminescence, dose response (AID 1891)
[10] = NIH3T3 cell viability loss – ATP luminescence, mouse fibroblasts, counter-screen, dose response (AID 2010); assay type: functional, cell-based;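 further: cells exposed to compound for about 90 hours before reading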
Streptococcus = assay: GAS UMAA2166 growth inhibition – luminescence, BacTiterGlo, counter-screen for streptokinase expression inhibitor project, dose response (AID 1915); assay type: functional, organism-based;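 further: potency for reduction of bacterial viability or growth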
[11] = biological target: T2, Ubiquitin-conjugating enzyme E2 N (Homo sapiens, UniProt P61088); assay type: functional
T2 sequence (P61088 whole entry): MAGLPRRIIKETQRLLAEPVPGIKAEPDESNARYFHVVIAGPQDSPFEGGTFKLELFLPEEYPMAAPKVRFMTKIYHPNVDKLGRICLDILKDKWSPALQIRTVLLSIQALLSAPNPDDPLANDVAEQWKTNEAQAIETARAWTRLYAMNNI

[12] = NIH-3T3 fibroblast cytotoxicity, dose response, cytotoxicity control, cell-based, fluorescence, Alamar Blue, secondary assay (AID 2327); assay type: functional;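 further: NIH-3T3 mouse fibroblasts cultured with fluconazole at 8 µg/mL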
[13] = general cell-killing toxicity readout – plate reader, dry powder samples, cytotoxicity control for PAX8 inhibitor project, dose response (AID 743021); assay type: functional, cell-based
Paired box protein Pax-8 = Paired box protein Pax-8 (Homo sapiens, UniProt Q06710); assay: PAX8 transcriptional activity inhibition in RMG-I – RMG-I cells, luciferase, cherry-pick, dose response (AID 687027); assay type: functional, cell-based;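 further: luciferase reporter driven by Pax8 target thyroperoxidase promoter measured by SteadyGlo luminescence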
[14] = biological target: T3, DNA repair protein RAD52 homolog (Homo sapiens, UniProt P43351); assay type: functional, biochemical
T3 sequence (P43351 whole entry): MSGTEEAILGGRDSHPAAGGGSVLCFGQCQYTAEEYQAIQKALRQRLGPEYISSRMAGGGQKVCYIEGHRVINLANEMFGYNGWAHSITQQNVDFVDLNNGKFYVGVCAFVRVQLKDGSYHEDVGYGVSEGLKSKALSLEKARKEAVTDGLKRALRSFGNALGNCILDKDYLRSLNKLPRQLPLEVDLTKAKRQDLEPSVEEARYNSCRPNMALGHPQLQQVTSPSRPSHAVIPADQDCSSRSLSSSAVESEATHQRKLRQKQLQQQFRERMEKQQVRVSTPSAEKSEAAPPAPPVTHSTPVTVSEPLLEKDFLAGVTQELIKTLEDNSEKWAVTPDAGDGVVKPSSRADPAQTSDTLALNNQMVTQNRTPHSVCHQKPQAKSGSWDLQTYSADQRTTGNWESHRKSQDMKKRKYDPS

[15] = biological target: T2, Ubiquitin-conjugating enzyme E2 N; assay type: functional; remark: listed apart in the source
[16] = fluconazole-exposed Candida albicans growth modulators – fluorescence, retest, confirmation (AID 2467); assay type: functional, cell-based
Bcl-2-related protein A1 = biological target: T4, Bcl-2-related protein A1 (Mus musculus, UniProt Q07440); assay type: functional;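 further: confirmatory dose–response counterscreen on Bfl-1, used to check hits from a UBC13 polyubiquitin inhibitor campaign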
T4 sequence (Q07440 whole entry): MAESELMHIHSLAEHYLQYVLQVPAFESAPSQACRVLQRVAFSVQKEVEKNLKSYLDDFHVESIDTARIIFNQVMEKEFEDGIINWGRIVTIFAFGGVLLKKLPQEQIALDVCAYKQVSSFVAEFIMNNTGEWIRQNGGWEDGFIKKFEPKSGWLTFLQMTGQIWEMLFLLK

[17] = biological target: T5, Zinc finger protein mex-5 (Caenorhabditis elegans, UniProt Q9XUB2); assay: potency of MEX-5 RNA-binding blockers – biochemical, C. elegans, fluorescence polarization, dose response (AID 1960)
T5 sequence (Q9XUB2 whole entry): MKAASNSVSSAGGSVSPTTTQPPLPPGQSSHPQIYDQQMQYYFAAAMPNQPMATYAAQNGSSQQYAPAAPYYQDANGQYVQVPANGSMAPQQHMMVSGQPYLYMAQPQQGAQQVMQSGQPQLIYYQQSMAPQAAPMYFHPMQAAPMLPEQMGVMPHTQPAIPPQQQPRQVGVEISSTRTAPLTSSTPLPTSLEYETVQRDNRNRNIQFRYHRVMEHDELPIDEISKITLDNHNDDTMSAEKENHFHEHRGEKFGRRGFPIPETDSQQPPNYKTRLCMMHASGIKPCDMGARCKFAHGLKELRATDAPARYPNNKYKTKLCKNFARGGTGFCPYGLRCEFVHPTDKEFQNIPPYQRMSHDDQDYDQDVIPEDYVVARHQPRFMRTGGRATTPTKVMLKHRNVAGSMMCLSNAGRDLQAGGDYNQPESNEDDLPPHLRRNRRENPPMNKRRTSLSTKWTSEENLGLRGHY

[18] = biological target: T6, RNA-binding protein pos-1 (Caenorhabditis elegans, UniProt G5EF15); assay: disruptors of C. elegans POS-1 RNA interaction – biochemical, fluorescence polarization, dose response (AID 1964);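 further: purified POS-1 fused to maltose binding protein made in E. coli; potency of compounds blocking POS-1 binding to fluorescent RNA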
T6 sequence (G5EF15 whole entry): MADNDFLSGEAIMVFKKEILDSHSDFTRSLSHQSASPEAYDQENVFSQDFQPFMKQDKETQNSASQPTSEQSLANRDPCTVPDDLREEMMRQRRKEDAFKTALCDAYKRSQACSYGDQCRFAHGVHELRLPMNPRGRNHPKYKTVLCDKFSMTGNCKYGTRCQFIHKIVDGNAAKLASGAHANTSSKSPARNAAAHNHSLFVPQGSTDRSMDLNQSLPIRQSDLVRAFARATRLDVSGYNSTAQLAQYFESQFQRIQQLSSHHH

[19] = biological target: T7, Sentrin-specific protease 1 (Homo sapiens, UniProt Q9P0U3); assay: Dose response confirmation of small molecule inhibitors of the catalytic domain of the SUMO protease, SENP1 in a FRET assay.; assay type: functional; conditions: read-out: IC50_Mean
T7 sequence (Q9P0U3 whole entry): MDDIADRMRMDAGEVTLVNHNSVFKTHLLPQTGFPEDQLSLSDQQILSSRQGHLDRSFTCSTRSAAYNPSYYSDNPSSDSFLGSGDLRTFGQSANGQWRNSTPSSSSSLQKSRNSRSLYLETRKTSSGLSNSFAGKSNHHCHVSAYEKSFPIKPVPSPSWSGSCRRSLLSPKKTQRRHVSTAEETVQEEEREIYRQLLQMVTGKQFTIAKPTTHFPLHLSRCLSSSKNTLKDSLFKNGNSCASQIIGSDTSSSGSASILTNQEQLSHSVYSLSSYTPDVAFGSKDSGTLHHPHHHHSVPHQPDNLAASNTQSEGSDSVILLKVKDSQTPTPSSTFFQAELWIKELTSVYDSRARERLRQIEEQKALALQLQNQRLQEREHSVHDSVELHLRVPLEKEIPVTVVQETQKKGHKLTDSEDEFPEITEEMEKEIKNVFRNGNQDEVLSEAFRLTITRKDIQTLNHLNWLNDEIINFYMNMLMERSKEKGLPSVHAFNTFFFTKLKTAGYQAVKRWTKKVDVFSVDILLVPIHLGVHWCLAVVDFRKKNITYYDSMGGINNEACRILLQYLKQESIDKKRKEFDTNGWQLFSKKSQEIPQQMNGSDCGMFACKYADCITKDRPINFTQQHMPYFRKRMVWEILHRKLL

[20] = biological target: T7, Sentrin-specific protease 1; assay: SENP1 catalytic domain blockers, concentration series – biochemical, kinetic FRET, dose response (AID 651697); assay type: functional; conditions: read-out: IC50_Mean

Sequence of Paired box protein Pax-8 (Q06710 whole entry): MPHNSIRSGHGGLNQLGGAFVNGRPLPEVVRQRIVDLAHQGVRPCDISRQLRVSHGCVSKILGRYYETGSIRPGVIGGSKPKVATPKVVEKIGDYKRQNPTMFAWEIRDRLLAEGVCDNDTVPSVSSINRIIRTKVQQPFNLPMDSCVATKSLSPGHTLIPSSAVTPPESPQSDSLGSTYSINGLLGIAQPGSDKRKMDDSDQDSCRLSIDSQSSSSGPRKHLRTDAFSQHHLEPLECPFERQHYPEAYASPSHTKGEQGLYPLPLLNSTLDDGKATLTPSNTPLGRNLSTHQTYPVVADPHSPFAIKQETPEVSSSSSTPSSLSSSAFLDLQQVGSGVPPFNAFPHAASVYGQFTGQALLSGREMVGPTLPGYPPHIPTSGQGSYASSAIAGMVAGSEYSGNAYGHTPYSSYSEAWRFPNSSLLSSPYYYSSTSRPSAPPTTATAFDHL
Sequence of Luciferin 4-monooxygenase (P08659 whole entry): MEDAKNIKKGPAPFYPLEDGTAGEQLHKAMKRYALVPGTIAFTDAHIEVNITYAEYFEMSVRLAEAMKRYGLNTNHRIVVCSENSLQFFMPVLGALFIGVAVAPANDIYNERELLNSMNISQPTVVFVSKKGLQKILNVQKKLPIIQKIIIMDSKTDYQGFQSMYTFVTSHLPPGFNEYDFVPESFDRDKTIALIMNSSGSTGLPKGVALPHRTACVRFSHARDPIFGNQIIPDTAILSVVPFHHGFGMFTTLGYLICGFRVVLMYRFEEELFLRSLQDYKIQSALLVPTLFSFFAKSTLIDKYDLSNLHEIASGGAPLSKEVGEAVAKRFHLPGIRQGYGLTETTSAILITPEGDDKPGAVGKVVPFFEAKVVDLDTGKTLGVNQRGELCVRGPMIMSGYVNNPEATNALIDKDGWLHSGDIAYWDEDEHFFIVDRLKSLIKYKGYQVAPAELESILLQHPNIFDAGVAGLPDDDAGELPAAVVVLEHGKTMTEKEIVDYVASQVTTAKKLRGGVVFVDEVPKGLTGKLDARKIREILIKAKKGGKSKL

SMILES: CCOC(=O)c1cnc2ccc(OCC)cc2c1NCc1ccccc1OC
- AC50 [1]: 10.6 µM (active)
- AC50 [2]: 4.51 µM (active)
- AC50 [3]: 19.4 µM (active)
- AC50 [4]: 25.7 µM (active)
- AC50 [5]: 35.4 µM (active)

SMILES: Oc1c(N=NC(S)=Nc2ccccc2F)c2ccccc2n1Cc1cccc(Cl)c1
- AC50 (HEK293): 4.15 µM (active)
- EC50 [6]: 2.69 µM (active)
- EC50 [7]: 676 nM (active)
- EC50 (Streptokinase A): > 150 µM (not active)
- EC50 [8]: > 112 µM (not active)
- EC50 [9]: > 112 µM (not active)
- EC50 [10]: 1.71 µM (active)
- EC50 (Streptococcus): > 150 µM (not active)

SMILES: O=c1c2cnn(-c3ccccc3)c2nc(-c2cccs2)n1-c1ccc(Cl)cc1
- AC50 (HEK293): 1.78 µM (active)

SMILES: CN1CCN(CCCNC(=O)c2ccc(/C=C3\Oc4ccccc4N(Cc4ccc(Cl)cc4)C3=O)cc2)CC1
- AC50 [2]: 3.55 µM (active)
- IC50 [11]: 1.35 µM (active)
- EC50 [12]: > 150 µM (inconclusive)
- AC50 [13]: 974 nM (active)
- AC50 (Paired box protein Pax-8): 16.9 µM (active)
- AC50 [14]: 17.9 µM (active)
- IC50 [15]: 12.4 µM (active)
- EC50 [16]: > 38 µM (not active)
- IC50 (Bcl-2-related protein A1): > 20 µM (inactive)

SMILES: O=C(CN1C(=O)/C(=C\C=C\c2ccccc2)SC1=S)Nc1ccc(F)cc1
- EC50 [17]: > 300 µM (not active)
- EC50 [18]: > 300 µM (not active)
- IC50 [19]: 5.21 µM (active)
- IC50 [20]: 7.54 µM (active)
